Data published in paper PMC8464955, “Prediction of Drug–Drug Interaction Potential of Tegoprazan Using Physiologically Based Pharmacokinetic Modeling and Simulation” (Pharmaceutics, 2021).
Like-named read-outs stand apart in the source and are kept apart here.

Key:
[1] = Blood:plasma partition ratio and fraction unbound in plasma, experimental data; format: in vitro ADME
[2] = Phase 1 clinical PK studies of tegoprazan alone in healthy male adults (observed); format: in vivo; conditions: human, urine and plasma, single oral dose 100 mg, read-out: CLR (renal clearance) (converted)
Description: The established PBPK model was verified by applying the predicted values to the clinical PK data from various phase 1 studies conducted with healthy male adults (Supplementary Table S2). Brief information about the clinical studies follows: study 1 (single-dose PK study), a single dose of tegoprazan 25 mg and 50 mg was orally administered; study 2 (food effect study), a single dose of tegoprazan 50 mg was orally administered in both fasted and fed states; study 3 (bioequivalence study of two formulations), a single dose of two different formulations with tegoprazan 100 mg was orally administered; study 4 (multiple-dose PK study), multiple doses of tegoprazan 50 mg and 100 mg were orally administered once daily for 7 days; study 5 (DDI study with clarithromycin), multiple doses of tegoprazan 200 mg were orally administered once daily with or without multiple doses of clarithromycin 500 mg twice daily for 5 days; and study 6 (DDI study with clarithromycin and amoxicillin), multiple doses of tegoprazan 100 mg were orally administered twice daily with or without multiple doses of clarithromycin/amoxicillin 500/1000 mg twice daily for 5 days or 7 days.

[3] = target: T1, CYP2D6 (Homo sapiens, UniProt P10635); assay: Intrinsic clearance in human liver microsomes with CYP inhibitors; format: in vitro ADME
T1 construct: from tissue; host or cells: human liver microsomes
T1 sequence (P10635 whole entry): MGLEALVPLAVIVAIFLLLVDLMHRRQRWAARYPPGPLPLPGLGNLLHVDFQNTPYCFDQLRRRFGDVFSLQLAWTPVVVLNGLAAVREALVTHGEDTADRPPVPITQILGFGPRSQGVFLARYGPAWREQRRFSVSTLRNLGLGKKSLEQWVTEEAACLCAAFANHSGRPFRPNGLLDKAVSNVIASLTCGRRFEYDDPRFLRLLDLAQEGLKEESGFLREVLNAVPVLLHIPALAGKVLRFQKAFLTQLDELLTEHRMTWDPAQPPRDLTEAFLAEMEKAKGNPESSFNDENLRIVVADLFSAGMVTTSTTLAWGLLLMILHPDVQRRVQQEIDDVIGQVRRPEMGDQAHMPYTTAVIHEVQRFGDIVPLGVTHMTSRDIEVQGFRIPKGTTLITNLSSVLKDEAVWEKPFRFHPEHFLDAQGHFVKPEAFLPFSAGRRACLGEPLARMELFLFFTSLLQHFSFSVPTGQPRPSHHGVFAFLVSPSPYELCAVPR
Description: (§1) The elimination of the PBPK model consisted of enzyme kinetic and renal clearance (Table 1). Intrinsic clearances (CLint) of tegoprazan by various CYPs were determined by an in vitro study that measured the fraction of CLint inhibited by adding the inhibitors of CYP1A2, CYP2C9, CYP2C19, CYP2D6, and CYP3A to human liver microsomes (in-house data). Based on the in vitro data, an in vitro to in vivo extrapolation (IVIVE) approach was used to estimate the in vivo CLint by each CYP enzyme. Renal clearance as an additional clearance was used from the result of a single-oral-dose study of tegoprazan 100 mg.

[4] = cited from earlier work
[5] = system: CYP3A4; assay: CYP3A4 intrinsic clearance by parameter estimation against clinical data; parameters: species or system human; conditions: estimated from clinical data, single dose 50 mg, instead of in vitro data
Description: as §1
If the predicted PK profiles and parameters were not close enough to the observed values, the PBPK model was refined by the parameter estimation approach, in which a parameter was optimized with respect to the clinical data. Parameter estimation was conducted using the genetic algorithm method and weighted-least squares as the objective function. Four parameters were simultaneously estimated in the final step of model refinement using clinical data of single-dose PK study of tegoprazan 50 mg (Table 1). The values of Q and VSAC were estimated to reflect the biphasic distribution of tegoprazan, and the value of Kp scalar was estimated because it affected the overall PK profile, especially distribution and clearance. […]

[6] = Physicochemical properties (log P, pKa), experimental data; conditions: for pKa: ampholyte
Description: A PBPK model of tegoprazan was built and verified by both the bottom-up approach using in vitro data for maintaining a mechanistic PBPK structure and the top-down approach using clinical PK results for maintaining a descriptive structure (Figure 1). The initial PBPK model of tegoprazan was constructed using physicochemical properties (e.g., molecular weight, log P, pKa), in vitro data (e.g., permeability, intrinsic clearance), and in vivo data (e.g., renal clearance) provided by HK inno.N Corp. (Seoul, Korea). The commercially available software SimCYP simulator v19 (SimCYP Limited, Certara, Sheffield, UK) was used to build the PBPK model and to generate the PK simulations. The PBPK-model-predicted PK profiles and parameters of tegoprazan were compared with the observed PK profiles and parameters from previously conducted clinical studies (Supplementary Table S1). The specific model configuration related to absorption, distribution, and elimination is described below.

[7] = system: gastric H^+/K^+-ATPase; parameters: method as in PMID 31437865; conditions: from 50 mg to 400 mg; cited from earlier work
[8] = cited from earlier work; for AUCτ Obs. / Cmax Obs.: mean; for Tmax Obs.: median
[9] = cited from earlier work; for AUCτ Obs. / Cmax Obs. / AUCinf Obs.: mean; for Tmax Obs.: median
[10] = tegoprazan 100 mg BID + clarithromycin 500 mg BID + amoxicillin 1000 mg BID, 7 days
[11] = tegoprazan 100 mg BID alone for 4 days, once on day 5
[12] = tegoprazan 200 mg QD + clarithromycin 500 mg BID for 5 days, ref NCT02052336
[13] = tegoprazan 200 mg QD alone for 5 days, ref NCT02052336
[14] = multiple oral doses 50 mg once daily for 7 days, ref NCT03009760
[15] = multiple oral doses 100 mg once daily for 7 days, ref NCT03009760
[16] = single oral dose 25 mg, ref NCT03530228
[17] = single oral dose 50 mg, NCT03530228

## Cc1nc2cc(C(=O)N(C)C)cc(O[C@H]3CCOc4cc(F)cc(F)c43)c2[nH]1 [tegoprazan]
[1]; blood and plasma, read-out: B/P (blood:plasma partition ratio)
  blood plasma ratio: 0.868
[1]; plasma, read-out: fu (fraction unbound in plasma)
  fraction unbound: 0.124
[2]
  CL renal: 21.8 mL/min
[3]
  CYP2D6 CLint: 2 μL/min/mg of protein
[4]
  apparent clearance: approximately 17.6 L/h
  mean half-life: 3.7 to 6.2 h
  volume of distribution: ~107.9 L
[4]; healthy adults, up to 400 mg single dose and 200 mg multiple doses
  safety and tolerability: safe and tolerable
[4]; phase 1 clinical study, healthy adults
  increase of systemic exposure with dose: dose proportional
[4]; previous studies
  Cmax when administered with food: decreased
  time to reach Cmax when administered with food: delayed
[5]
  CYP3A4 CLint: 30.34 μL/min/mg of protein
[6]; read-out: pKa 1
  pKa: 5.2
[6]; read-out: pKa 2
  pKa: 12
[6]; octanol/water, read-out: Log P (octanol:water partition coefficient)
  logP: 3
[7]
  magnitude of acid suppression: increases in a dose-dependent manner
[8]
  DDI between tegoprazan and amoxicillin: negligible
[8]; co-administration of clarithromycin
  apparent clearance, DDI study result: 6.6 L/h
[8]; [10]
  AUCτ Obs.: 16,045.0 μg∙h/L
  Cmax Obs.: 2285.6 ng/mL
  Tmax Obs.: 2.50 h
[8]; [11]
  AUCτ Obs.: 5955.9 µg·h/L
  Cmax Obs.: 1018.4 ng/mL
  Tmax Obs.: 1.30 h
[8]; [12]
  AUCτ Obs.: 27,796.4 μg∙h/L
  Cmax Obs.: 3096.0 ng/mL
  Tmax Obs.: 1.50 h
[8]; [13]
  AUCτ Obs.: 10,817.6 μg∙h/L
  Cmax Obs.: 1868.6 ng/mL
  Tmax Obs.: 1.00 h
[8]; tegoprazan alone
  apparent clearance, DDI study result: 17.7 L/h
[9]; [14]
  AUCτ Obs.: 2954.9 ng·h/mL
  Cmax Obs.: 842.8 ng/mL
  Tmax Obs.: 1.00 h
[9]; [15]
  AUCτ Obs.: 4768.4 ng·h/mL
  Cmax Obs.: 1149.7 ng/mL
  Tmax Obs.: 1.25 h
[9]; [16]
  AUCinf Obs.: 1340.0 ng·h/mL
  Cmax Obs.: 335.6 ng/mL
  Tmax Obs.: 0.75 h
[9]; [17]
  AUCinf Obs.: 2903.0 ng·h/mL
  Cmax Obs.: 759.1 ng/mL
  Tmax Obs.: 1.00 h
[9]; single oral dose 100 mg
  AUCinf Obs.: 5998.1 ng·h/mL
  Cmax Obs.: 1434.5 ng/mL
  Tmax Obs.: 1.00 h
